Where two headings read alike, the source gives them in different places.
Columns and labels:
[1] = tested on: HFF-1 (foreskin fibroblasts); experiment: MTT proliferation assay, HFF-1; format: cell-based; details: Homo sapiens, 72 h, normal foreskin fibroblasts
Protocol: Human tumor cell lines HeLa (cervical carcinoma), SW620 (colorectal adenocarcinoma, metastatic), A549 (lung adenocarcinoma), MCF−7 (breast adenocarcinoma), CFPAC-1 (pancreatic adenocarcinoma, metastatic), HCT-116 (colorectal carcinoma), and HepG2 (hepatocellular carcinoma), and normal cell lines HFF-1 (foreskin fibroblasts) and WI-38 (immortalized human lung fibroblast), were from the US American Type Culture Collection (ATCC, Manassas, VA, USA). Cells were cultured in a liquid nutrient medium (Dulbecco’s Modified Eagle Medium, LONZA, Basel, Switzerland) supplemented with 10% fetal bovine serum (FBS, Gibco, Grand Island, NY, USA), 2 mM L-glutamine (GIBCO, Grand Island, NY, USA), 100 μg/mL penicillin, and 100 μg/mL streptomycin (LONZA, Basel, Switzerland), in an incubator (NÜVE, Ankara, Turkey), at a humid atmosphere with 5% CO2 at 37 °C. Trypsin/EDTA Solution (Lonza, Basel, Switzerland), was used for cell passaging and cell detachment.
Adherent cells were seeded on 96 well microtiter plates (Falcon, New York, NY, USA) at a seeding density of 5000 cells per well, added in 150 μL of cell suspension in a nutrient medium. 24 h after seeding, cells were treated with compound 4b–4g, 4i, 4k–4t, 4v, 7c–7g, and 7i–7q dilutions in the range of 0.01 μM to 100 μM. L-ascoric acid (Sigma Aldrich, Darmstadt, Germany) and Carboxyamidotriazole (Sigma Aldrich, Darmstadt, Germany) were used as control compounds. Incubation of the cells with the compounds were performed for 72 h in a 5% CO2, in humid atmosphere at 37 °C. After incubation, nutrient medium was removed and 40 μL of the MTT reagent ([…]-2,5-diphenyltetrazole bromide (Invitrogen, Carlsbad, CA, USA) was added to each well. 3 h after incubation, 160 μL of DMSO (VWR CHEMICALS, Radnor, PA, USA) were added to each well to dissolve the crystals of purple formazane. The absorbance was measured at 570 nm (TECAN SUNRISE Microtiter plate reader (Männedorf, Switzerland). The experimentally measured optical densities (OD) were converted to the PG (percentage of growth), using the formulas according to the protocol assumed by NIH (National Institute of Health). The IC50 values (concentration causing 50% cell growth inhibition) for each compound were calculated by regression analysis of the survival count curve of the concentrations of the tested compounds. The results were processed in Excel 2010 (Microsoft, Redmond, WA, USA).

[2] = tested on: A549 (lung adenocarcinoma); experiment: MTT proliferation assay, A549; format: cell-based; details: Homo sapiens, 72 h
Procedure, shortened: (§1)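 Cells in DMEM with 10% FBS were seeded at 5000 per well, treated 24 h later with compound from 0.01 μM to 100 μM, and incubated 72 h at 37 °C, 5% CO2. MTT was added for 3 h, formazan dissolved in DMSO, and absorbance read at 570 nm; IC50 came from regression of growth curves.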

[3] = tested on: HCT-116 (colorectal carcinoma); experiment: MTT proliferation assay, HCT-116; format: cell-based; details: Homo sapiens, 72 h
Procedure, shortened: as §1

[4] = DPPH radical scavenging assay; format: biochemical
Procedure, shortened: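 Compounds at 0.06, 0.12, 0.18, 0.23, 0.25 and 0.28 mM reacted with the stable DPPH• radical. Absorbance at 517 nm was read 5 and 10 min after mixing to follow DPPH reduction, with L-ascorbic acid as the reference.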

[5] = tested on: SW620 (colorectal adenocarcinoma, metastatic); experiment: MTT proliferation assay, SW620; format: cell-based; details: Homo sapiens, SW-620, 72 h
Procedure, shortened: as §1

MCF-7 cells = experiment: Seahorse XF Cell Mito Stress Test, MCF-7; format: cell-based, Human
Protocol: The Seahorse XF Cell Mito Stress Test was used for measurements of mitochondrial respiration by direct assessment of the oxygen consumption rate (OCR), of treated and untreated cells on the Seahorse XFe24 Analyzer, (Agilent, Santa Clara, CA, USA). Key parameters of the mitochondrial function were measured by direct assessment of the OCR, by use of the Mito Stress Test (Agilent, Agilent, Santa Clara, CA, USA). The Mito Stress Test uses modulators of respiration that target components of the electron transport chain in the mitochondria. The compounds added to the reaction were: oligomycin, mitochondrial oxidative phosphorylation uncoupler carbonyl cyanide-4-(trifluoromethoxy)phenylhydrazone (FCCP), and the mix of rotenone and antymicin A. These were directly injected to the cell growth medium containing cells treated with selected L-ASA derivatives to determine the production of ATP, respiration at maximal level, and the non-mitochondrial respiration. Measured parameters were used for calculation of the proton leakage, spare respiratory capacity, and basal respiration. The assay was performed according to the manufacturer’s instructions (SeaHorse—Mito Stress Test: Agilent, Santa Clara, CA, USA). Briefly, selected compound 4e was tested due to its selective antiproliferative effect on MCF-7 cells. […] […] The experiment was performed with biological duplicates.

[6] = 5 min treatment, read-out: IC50 of DPPH• inhibition, Treatm. 5 min
[7] = 10 min treatment, read-out: IC50 of DPPH• inhibition, Treatm. 10 min

Row | SMILES | IC50 [1] | IC50 [2] | IC50 [3] | IC50 [4, 6] | IC50 [4, 7] | IC50 [5] | basal respiration and ATP production (MCF-7 cells; MCF-7, 24 h, IC50 concentration (6.72 µM) and 2 × IC50 (13.44 µM)) | cellular mitochondrial metabolism (MCF-7 cells; MCF-7, 24 h, lower tested concentration (3.36 µM)) | pIC50 (negative logarithm of DPPH• IC50) ([4]; calculated from IC50 values of Table 1) | mitochondrial activity (MCF-7 cells; 24 h, lower concentration (50 mM), Figure 5 panel A (MCF-7 and HFF-1)) | basal cell respiration and ATP production (MCF-7 cells; MCF-7, 24 h, higher concentrations)
1 | O=C1O[C@H]([C@@H](O)Cn2cc(-c3ccc(Br)cc3)nn2)C(O)=C1O [Compound 4e, 6-[4-(4-bromophenyl)-1,2,3-triazol-1-yl]-6-deoxy-L-ascorbic acid] | > 100 µM | 25.4 µM | > 100 µM | 200 ± 10 µM | 190 ± 10 µM | > 100 µM | increased the basal respiration and ATP production | lowered cellular mitochondrial metabolism | – | – | –
2 | O=C1O[C@H]([C@@H](O)CO)C(O)=C1O [L-ASA, L-ascorbic acid] | > 100 µM | > 100 µM | > 100 µM | 180 ± 60 µM | 170 ± 50 µM | > 100 µM | – | – | 3.75 | did not act on the mitochondrial activity | decreased the basal cell respiration and ATP production

Source: publication PMC6801448, “The Antioxidant and Antiproliferative Activities of 1,2,3-Triazolyl-L-Ascorbic Acid Derivatives” (International Journal of Molecular Sciences, 2019)
